Assay results as given in patent US12624068B2, “Exon skipping by peptide nucleic acid derivatives” (OliPass Corporation, priority 2016, dated 2026).
Oligonucleotides are written 5' to 3', each unit as a sugar letter and its base; * is a phosphorothioate linkage, no mark a phosphodiester; rarer units and linkages stand in square brackets, end groups in braces. Plain capitals give the bases only. {Fethoc} = N-terminal Fethoc cap; [C(1O2)] = modified PNA monomer acting as cytosine, C(pOq) type, 1O2; [C(1O5)] = modified PNA monomer acting as cytosine, C(pOq) type, 1O5; [A(5)] = modified PNA monomer acting as adenine, A(p) type, p=5; [A(6)] = modified PNA monomer acting as adenine, A(p) type, p=6; [G(5)] = modified PNA monomer acting as guanine, G(p) type, p=5; [G(6)] = modified PNA monomer acting as guanine, G(p) type, p=6; [PNA-N] = PNA monomer with natural nucleobase (N: the base); {NH2} = C-terminal amide; [G(G)] = code of the source, not defined here; [Lys] = lysine residue in the chain; [Val] = valine residue in the chain; {Piv} = N-terminal pivaloyl group

System: 10-mer complementary DNA
Test: Tm between PNA derivatives and 10-mer complementary DNA (N- or C-terminal)
Type: binding
Settings: uncorrected
Method: A mixed solution of 4 μM 10-mer PNA oligomer and 4 μM complementary 10-mer DNA or RNA in 4 mL aqueous buffer (pH 7.16, 10 mM sodium phosphate, 100 mM NaCl) in 15 mL polypropylene falcon tube was incubated at 90° C. for a minute and slowly cooled down to ambient temperature. Then the solution was transferred into a 4 mL quartz UV cuvette, and subjected to Tm measurement at 260 nm on a UV/Visible spectrophotometer as described in the prior art [PCT/KR2009/001256] or with minor modifications. The DNA and RNA for Tm measurement were purchased from Bioneer (www.bioneer.com, Dajeon, Republic of Korea) and used without further purification.
PNA derivatives of Formula I were evaluated for their binding affinity for 10-mer DNAs complementarily targeting either the N-terminal or C-terminal. The binding affinity was assessed by the Tm value for the duplex between PNA and 10-mer complementary DNA. The duplex between PNA derivatives and DNAs of full complementarity usually show Tm values too high to be reliably determined in aqueous buffer solution. The aqueous buffer solution tends to boil off during Tm measurement.

| Substance | Tm Value, 10-mer DNA against C-Terminal [°C] | Tm Value, 10-mer DNA against N-Terminal [°C] |
| --- | --- | --- |
| Fethoc-A(5)AG-TG(6)T-A(5)CC(1O2)-TAA-A(5)-NH2 (AAGTGTACCTAAA; splice-switching; all peptide nucleic acid (PNA), [A(5)] at 1, 7, 13, [G(6)] at 5, [C(1O2)] at 9, 5' {Fethoc}, 3' {NH2}; peptide nucleic acid written N to C) [SCN-ASO 24] | 66.0 | 77.0 |
| Fethoc-A(5)GT-G(5)TA(5)-CC(1O2)T-A(5)AA(5)-C-NH2 (AGTGTACCTAAAC; splice-switching; all peptide nucleic acid (PNA), [A(5)] at 1, 6, 10, 12, [G(5)] at 4, [C(1O2)] at 8, 5' {Fethoc}, 3' {NH2}; peptide nucleic acid written N to C) [SCN-ASO 28] | 70.0 | 78.1 |
| Fethoc-A(6)GA-A(6)CT-CA(6)T-CC(1O2)T-A(6)CT-TA(6)-NH2 (antisense AGAACTCATCCTACTTA; all peptide nucleic acid (PNA), [A(6)] at 1, 4, 8, 13, 17, [C(1O2)] at 11, 5' {Fethoc}, 3' {NH2}; peptide nucleic acid written N to C) [HIF-ASO 11] | 61.0 | 73.4 |
| Fethoc-A(6)TT-TG(5)T-TA(6)C-C(1O2)CT-G(5)G-NH2 (ATTTGTTACCCTGG; all peptide nucleic acid (PNA), [A(6)] at 1, 8, [G(5)] at 5, 13, [C(1O2)] at 10, 5' {Fethoc}, 3' {NH2}; peptide nucleic acid written N to C) [SNAP-ASO 12] | 74.0 | 62.0 |
| Fethoc-A(6)TT-TG(G)T-TA(5)C-C(1O2)CT-G(5)-NH2 (antisense ATTTGTTACCCTG; all peptide nucleic acid (PNA), [A(6)] at 1, [G(G)] at 5, [A(5)] at 8, [C(1O2)] at 10, [G(5)] at 13, 5' {Fethoc}, 3' {NH2}; peptide nucleic acid written N to C) [SNAP-ASO 9] | 76.0 | 62.0 |
| Fethoc-AA(5)G-TG(5)T-A(5)CC(1O2)-TA(5)A-A(5)-NH2 (AAGTGTACCTAAA; splice-switching; all peptide nucleic acid (PNA), [A(5)] at 2, 7, 11, 13, [G(5)] at 5, [C(1O2)] at 9, 5' {Fethoc}, 3' {NH2}; peptide nucleic acid written N to C) [SCN-ASO 26] | 72.0 | 75.0 |
| Fethoc-AA(5)G-TG(6)T-A(5)CC(1O2)-TAA(5)-A-NH2 (AAGTGTACCTAAA; splice-switching; all peptide nucleic acid (PNA), [A(5)] at 2, 7, 12, [G(6)] at 5, [C(1O2)] at 9, 5' {Fethoc}, 3' {NH2}; peptide nucleic acid written N to C) [SCN-ASO 22] | 65.0 | 74.0 |
| Fethoc-AAG(6)-TG(6)T-A(5)CC(1O2)-TA(5)A-A-NH2 (AAGTGTACCTAAA; splice-switching; all peptide nucleic acid (PNA), [G(6)] at 3, 5, [A(5)] at 7, 11, [C(1O2)] at 9, 5' {Fethoc}, 3' {NH2}; peptide nucleic acid written N to C) [SCN-ASO 25] | 66.0 | 78.0 |
| Fethoc-C(1O5)TT-A(6)TC-CTA(6)-C(1O2)TT-AA(6)C-NH2 (CTTATCCTACTTAAC; all peptide nucleic acid (PNA), [C(1O5)] at 1, [A(6)] at 4, 9, 14, [C(1O2)] at 10, 5' {Fethoc}, 3' {NH2}; peptide nucleic acid backbone) [HIF-ASO 7] | 61.0 | 69.0 |
| Fethoc-CA(6)T-CA(6)T-TTG(5)-TTA(5)-CCC(1O2)-TG(5)-NH2 (CATCATTTGTTACCCTG; all peptide nucleic acid (PNA), [A(6)] at 2, 5, [G(5)] at 9, 17, [A(5)] at 12, [C(1O2)] at 15, 5' {Fethoc}, 3' {NH2}; peptide nucleic acid written N to C) [SNAP-ASO 10] | 68.0 | 61.0 |
| Fethoc-CA(6)T-TTG(5)-TTA(5)-CCC(1O2)-TG(5)-NH2 (antisense CATTTGTTACCCTG; all peptide nucleic acid (PNA), [A(6)] at 2, [G(5)] at 6, 14, [A(5)] at 9, [C(1O2)] at 12, 5' {Fethoc}, 3' {NH2}; peptide nucleic acid written N to C) [SNAP-ASO 8] | 68.0 | 58.0 |
| Fethoc-CTC(1O2)-A(6)TC-CTA(6)-C(1O2)TT-AA(6)C-NH2 (CTCATCCTACTTAAC; all peptide nucleic acid (PNA), [C(1O2)] at 3, 10, [A(6)] at 4, 9, 14, 5' {Fethoc}, 3' {NH2}; peptide nucleic acid backbone) [HIF-ASO 8] | 61.0 | 73.0 |
| Fethoc-CTT-A(5)CG(6)-C(1O2)AA(5)-AA(5)A-C(1O2)AA(5)-NH2 (CTTACGCAAAAACAA; all peptide nucleic acid (PNA), [A(5)] at 4, 9, 11, 15, [G(6)] at 6, [C(1O2)] at 7, 13, 5' {Fethoc}, 3' {NH2}; peptide nucleic acid written N to C) [SCN-ASO 12] | 77.0 | 76.0 |
| Fethoc-G(5)AA(6)-CTT-A(6)TC-CTA(6)-C(1O2)T-NH2 (GAACTTATCCTACT; splice-switching; all peptide nucleic acid (PNA), [G(5)] at 1, [A(6)] at 3, 7, 12, [C(1O2)] at 13, 5' {Fethoc}, 3' {NH2}; peptide nucleic acid backbone) [HIF-ASO 5] | 58.0 | 62.0 |
| Fethoc-GA(5)A-C(1O2)TT-A(5)TC-CTA(5)-CT-NH2 (GAACTTATCCTACT; splice-switching; all peptide nucleic acid (PNA), [A(5)] at 2, 7, 12, [C(1O2)] at 4, 5' {Fethoc}, 3' {NH2}; peptide nucleic acid backbone) [HIF-ASO 4] | 53.4 | 66.0 |
| Fethoc-TA(5)C-CAG(6)-GC(1O2)A-A(5)GG(6)-C-NH2 (antisense TACCAGGCAAGGC; all peptide nucleic acid (PNA), [A(5)] at 2, 10, [G(6)] at 6, 12, [C(1O2)] at 8, 5' {Fethoc}, 3' {NH2}; peptide nucleic acid backbone) [AR-ASO 4] | 84.5 | 84.3 |
| Fethoc-TG(5)T-TA(6)C-C(1O2)CT-GG(5)G-A(5)-NH2 (TGTTACCCTGGGA; all peptide nucleic acid (PNA), [G(5)] at 2, 11, [A(6)] at 5, [C(1O2)] at 7, [A(5)] at 13, 5' {Fethoc}, 3' {NH2}; peptide nucleic acid written N to C) [SNAP-ASO 2] | 87.6 | 76.0 |
| Fethoc-TG(6)T-TA(5)A-A(5)TA(5)-CGC(1O2)-AA(5)A-A(5)A-NH2 (TGTTAAATACGCAAAAA; all peptide nucleic acid (PNA), [G(6)] at 2, [A(5)] at 5, 7, 9, 14, 16, [C(1O2)] at 12, 5' {Fethoc}, 3' {NH2}; peptide nucleic acid written N to C) [SCN-ASO 4] | 71.6 | 63.5 |
| Piv-A(6)TC-CTA(6)-C(1O2)TT-A(5)AC-NH2 (ATCCTACTTAAC; splice-switching; all peptide nucleic acid (PNA), [A(6)] at 1, 6, [C(1O2)] at 7, [A(5)] at 10, 5' {Piv}, 3' {NH2}; peptide nucleic acid backbone) [HIF-ASO 9] | 59.0 | 60.9 |
| Piv-Lys-AA(6)C-TTA(6)-TCC(1O2)-TA(6)C-TTA(5)-Val-NH2 (antisense {Piv}[Lys][PNA-A][PNA-A(6)][PNA-C][PNA-T][PNA-T][PNA-A(6)][PNA-T][PNA-C][PNA-C(1O2)][PNA-T][PNA-A(6)][PNA-C][PNA-T][PNA-T][PNA-A(5)][Val]-{NH2}; peptide nucleic acid backbone) [HIF-ASO 10] | 60.0 | 61.0 |
